Assay results published in US9169255B2, “Caffeinated compounds and compositions for treatment of amyloid diseases and synucleinopathies” (ProteoTech Inc, priority 2011, dated 2015).

How the values were obtained:
Assay type in all cases: biochemical
[1] = molecular target: T1, Aβ 1-42 fibrils (Homo sapiens, UniProt P05067); test: Thioflavin T fluorometry, disruption of pre-fibrillized Aβ 1-42; details: for Thioflavin T fluorometry % Inhibition: 2-day incubation; for effect against Aβ fibrils/aggregates at substoichiometric concentrations: test compound:Aβ molar ratios of 0.1:1 and 0.05:1
T1 construct: pre-fibrillized human Aβ 1-42 (rPeptide); purchased rPeptide
T1 sequence (P05067 672-713 limits assumed): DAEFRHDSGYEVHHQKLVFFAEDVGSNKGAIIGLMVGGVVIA
Text: In this assay Thioflavin T binds specifically to fibrillar amyloid, and this binding produces a fluorescence enhancement at 485 nm that is directly proportional to the amount of amyloid fibrils formed. The higher the fluorescence, the greater the amount of amyloid fibrils formed (Naki et al., Lab. Invest. 65:104-110, 1991; Levine III, Protein Sci. 2:404-410, 1993; Amyloid: Int. J. Exp. Clin. […] The emission fluorescence was read at 485 nm (444 nm excitation wavelength) using an ELISA plate fluorometer after subtraction with buffer alone or compound alone, as blank.

[2] = molecular target: T1, Aβ 1-42 fibrils; test: Congo red binding assay, Aβ 1-42 fibrils; details: for Congo Red Binding % Inhibition: 2-day incubation
Experimental: In the Congo red binding assay the ability of a test compound to alter β-amyloid binding to Congo red is quantified. In this assay, Aβ 1-42 (as prepared for the Thio T assay) and test compounds were incubated for 2 days and then vacuum filtered through a 0.2 μm filter. The amount of Aβ 1-42 retained in the filter was then quantitated following staining of the filter with Congo red. After appropriate washing of the filter, any lowering of the Congo red color on the filter in the presence of the test compound (compared to the Congo red staining of the amyloid protein in the absence of the test compound) was indicative of the test compound's ability to diminish/alter the amount of aggregated and congophilic Aβ.

[3] = molecular target: wild-type α-synuclein (Homo sapiens, UniProt P37840); test: Thioflavin T fluorometry, inhibition of formation of α-synuclein β-sheet from fresh α-synuclein
Experimental: To test whether the compounds can inhibit formation of α-synuclein β-sheet, the same assay as described in Example 2, was utilized but the α-synuclein was fresh and not pre-fibrillized. Fresh wild-type α-synuclein was dissolved in a buffer containing 9.5 mM phosphate, 137 mM sodium chloride and 2.7 mM potassium chloride (phosphate-buffered saline; PBS), and the pH was adjusted to pH 7.4. This solution was then lyophilized and dissolved in 1.0 ml deionized water at 0.5 mg/ml (35 μM). As indicated above the test compounds (typically at test compound:α-synuclein molar ratios of 10:1, 1:1, 0.1:1, and 0.01:1) were then added to the α-synuclein. Following 24-38 hours of co-incubation, the incubation mixtures were diluted 1:10 and 50 μl of each diluted incubation mixture was transferred into a 96-well microtiter plate containing 150 μl of distilled water and 50 μl of a Thioflavin T solution (i.e. 500 μM Thioflavin T in 250 mM phosphate buffer, pH 6.8). The final concentration of α-synuclein was 0.7 μM and the concentration of Thioflavin T reagent was 100 μM in 50 mM phosphate buffer, pH 6.8. In some experiments, 200 μl of each diluted incubation mixture was combined in the 96-well microtiter plate with 50 μl of the 500 μM Thioflavin T solution to give 2.8 μM α-synuclein in the presence of 100 μM Thioflavin T reagent. The fluorescence was read at 485 nm (444 nm excitation wavelength) using an ELISA plate fluorometer after subtraction with buffer alone or compound alone, as blank. Positive control compound 1 performed nearly identically in inhibiting α-synuclein aggregation regardless of whether 0.7 μM or 2.8 μM α-synuclein was subsequently used in the Thioflavin T reaction.

[4] = molecular target: T2, α-synuclein fibrils (Homo sapiens, UniProt P37840); test: Congo red binding assay, pre-formed α-synuclein fibrils; details: 2-day incubation
T2 construct: purchased rPeptide, Bogart, Calif
Experimental: In this set of studies, the efficacy of certain compounds provided herein to cause a disassembly/disruption/disaggregation of pre-formed fibrils of Parkinson's disease (i.e. consisting of α-synuclein fibrils) was analyzed. For the studies described below in Parts A and B, 69 μM of α-synuclein (rPeptide, Bogart, Calif.) was first incubated at 37° C. for 4 days in 20 mM sodium acetate buffer at pH 4 with circular shaking (1,300 rpm) to cause α-synuclein aggregation and fibril formation.
In the Congo red binding assay, the ability of a given test compound to alter α-synuclein aggregate binding to Congo red is quantified. In this assay Congo red binds specifically to fibrillar protein, and this binding is directly proportional to the amount of fibrils formed. Following initial α-synuclein fibrilization as described above, α-synuclein aggregates and test compounds were incubated for 2 days and then vacuum filtered through a 0.2 μm filter. The amount of α-synuclein retained in the filter was then quantitated following staining of the filter with Congo red. After appropriate washing of the filter, any lowering of the Congo red color on the filter in the presence of the test compound (compared to the Congo red staining of the protein in the absence of the test compound—i.e. α-synuclein alone) was indicative of the test compound's ability to diminish/alter the amount of aggregated and congophilic α-synuclein and thus cause disassembly/disruption/disaggregation of α-synuclein fibrils.
In one study, the ability of α-synuclein fibrils to bind Congo red following a 2-day incubation of α-synuclein in the absence or presence of increasing amounts of the compounds provided herein, including positive reference (control) compounds (at test compound:α-synuclein molar ratios of 10:1, 1:1, 0.1:1, 0.01:1) was determined. The results of this study indicate that compounds of this invention disrupt/disaggregate/disassemble pre-formed α-synuclein aggregates as indicated by their ability to inhibit Parkinson's disease type α-synuclein fibril binding to Congo red.

[5] = compound:peptide molar ratio 0.05:1
[6] = compound:peptide molar ratio 0.1:1
[7] = compound:peptide molar ratio 1:1
[8] = compound:peptide molar ratio 5:1
[9] = compound:peptide molar ratio 10:1
[10] = compound:peptide molar ratio 0.01:1

## 1,3-dimethyl-7-(3′,4′-dibenzyloxy)benzyl-8-(3′,4′-dihydroxyphenyl)xanthine [PD-154]
[1]; [5]
  Thioflavin T fluorometry % Inhibition: 43%
[1]; [6]
  Thioflavin T fluorometry % Inhibition: 36%
[1]; [7]
  Thioflavin T fluorometry % Inhibition: 60%
[1]; [8]
  Thioflavin T fluorometry % Inhibition: 74%
[1]; [9]
  Thioflavin T fluorometry % Inhibition: 80%
[1]
  effect against Aβ fibrils/aggregates at substoichiometric concentrations: effective
[2]; [6]
  Congo Red Binding % Inhibition: 0%
[2]; [7]
  Congo Red Binding % Inhibition: 0%
[2]; [8]
  Congo Red Binding % Inhibition: 0%
[2]; [9]
  Congo Red Binding % Inhibition: 0%
[3]; [10]
  ThioT Assay % Inhibition: 8%
[3]; [6]
  ThioT Assay % Inhibition: 44%
[3]; [7]
  ThioT Assay % Inhibition: 89%
[3]; [9]
  ThioT Assay % Inhibition: 89%
[4]; [10]
  Congo Red Binding- % Inhibition: 3%
[4]; [6]
  Congo Red Binding- % Inhibition: 0%
[4]; [7]
  Congo Red Binding- % Inhibition: 12%
[4]; [9]
  Congo Red Binding- % Inhibition: 0%

## Cn1c(=O)c2c(ncn2C)n(C)c1=O [Caffeine, reference compound]
[1]; all concentrations tested
  inhibition of Aβ 1-42 fibrils (Thioflavin T fluorometry): no significant inhibition
[1]; [7]
  Thioflavin T fluorometry % Inhibition: 0%
[1]; [8]
  Thioflavin T fluorometry % Inhibition: 0%
[1]; [9]
  Thioflavin T fluorometry % Inhibition: 8%
[2]; all concentrations tested
  inhibition of Aβ 1-42 fibril binding to Congo red: no significant inhibition
[2]; [7]
  Congo Red Binding % Inhibition: 0%
[2]; [8]
  Congo Red Binding % Inhibition: 0%
[2]; [9]
  Congo Red Binding % Inhibition: 1%
[3]; [10]
  ThioT Assay % Inhibition: 0%
[3]; [6]
  ThioT Assay % Inhibition: 0%
[3]; [7]
  ThioT Assay % Inhibition: 0%
[3]; [9]
  ThioT Assay % Inhibition: 0%
[4]; [9]
  Congo Red Binding- % Inhibition: 0%

## Cn1cnc2c1c(=O)n(Cc1ccc(O)c(O)c1)c(=O)n2Cc1ccc(O)c(O)c1 [PD-150, 7-Methyl-1,3-bis(3′,4′-dihydroxy)benzylxanthine]
[1]; [5]
  Thioflavin T fluorometry % Inhibition: 41%
[1]; [6]
  Thioflavin T fluorometry % Inhibition: 35%
[1]; [7]
  Thioflavin T fluorometry % Inhibition: 67%
[1]; [8]
  Thioflavin T fluorometry % Inhibition: 87%
[1]; [9]
  Thioflavin T fluorometry % Inhibition: 94%
[1]
  effect against Aβ fibrils/aggregates at substoichiometric concentrations: effective
[2]; [6]
  Congo Red Binding % Inhibition: 10%
[2]; [7]
  Congo Red Binding % Inhibition: 18%
[2]; [8]
  Congo Red Binding % Inhibition: 46%
[2]; [9]
  Congo Red Binding % Inhibition: 60%
[3]; [10]
  ThioT Assay % Inhibition: 0%
[3]; [6]
  ThioT Assay % Inhibition: 0%
[3]; [7]
  ThioT Assay % Inhibition: 22%
[3]; [9]
  ThioT Assay % Inhibition: 91%
[4]; [9]
  Congo Red Binding- % Inhibition: 35%

## Cn1c(=O)n(Cc2ccc(O)c(O)c2)c(=O)c2c1ncn2Cc1ccc(O)c(O)c1 [PD-151, 3-Methyl-1,7-bis(3′,4′-dihydroxybenzyl)xanthine]
[1]; [5]
  Thioflavin T fluorometry % Inhibition: 18%
[1]; [6]
  Thioflavin T fluorometry % Inhibition: 20%
[1]; [7]
  Thioflavin T fluorometry % Inhibition: 56%
[1]; [8]
  Thioflavin T fluorometry % Inhibition: 87%
[1]; [9]
  Thioflavin T fluorometry % Inhibition: 94%
[2]; [6]
  Congo Red Binding % Inhibition: 13%
[2]; [7]
  Congo Red Binding % Inhibition: 12%
[2]; [8]
  Congo Red Binding % Inhibition: 47%
[2]; [9]
  Congo Red Binding % Inhibition: 63%
[3]; [10]
  ThioT Assay % Inhibition: 0%
[3]; [6]
  ThioT Assay % Inhibition: 0%
[3]; [7]
  ThioT Assay % Inhibition: 0%
[3]; [9]
  ThioT Assay % Inhibition: 78%
[4]; [10]
  Congo Red Binding- % Inhibition: 3%
[4]; [6]
  Congo Red Binding- % Inhibition: 1%
[4]; [7]
  Congo Red Binding- % Inhibition: 6%
[4]; [9]
  Congo Red Binding- % Inhibition: 22%

## Cn1c(=O)c2c(ncn2Cc2ccc(O)c(O)c2)n(Cc2ccc(O)c(O)c2)c1=O [PD-152]
[1]; [5]
  Thioflavin T fluorometry % Inhibition: 12%
[1]; [6]
  Thioflavin T fluorometry % Inhibition: 13%
[1]; [7]
  Thioflavin T fluorometry % Inhibition: 54%
[1]; [8]
  Thioflavin T fluorometry % Inhibition: 87%
[1]; [9]
  Thioflavin T fluorometry % Inhibition: 91%
[2]; [6]
  Congo Red Binding % Inhibition: 4%
[2]; [7]
  Congo Red Binding % Inhibition: 21%
[2]; [8]
  Congo Red Binding % Inhibition: 48%
[2]; [9]
  Congo Red Binding % Inhibition: 59%
[3]; [10]
  ThioT Assay % Inhibition: 0%
[3]; [6]
  ThioT Assay % Inhibition: 0%
[3]; [7]
  ThioT Assay % Inhibition: 0%
[3]; [9]
  ThioT Assay % Inhibition: 72%
[4]; [10]
  Congo Red Binding- % Inhibition: 0%
[4]; [6]
  Congo Red Binding- % Inhibition: 6%
[4]; [7]
  Congo Red Binding- % Inhibition: 19%
[4]; [9]
  Congo Red Binding- % Inhibition: 22%

## Cn1c(=O)c2c(nc(-c3ccc(O)c(O)c3)n2C)n(C)c1=O [PD-153, 1,3,7-trimethyl-8-(3′,4′-dihydroxyoxyphenyl)xanthine]
[1]; [5]
  Thioflavin T fluorometry % Inhibition: 5%
[1]; [6]
  Thioflavin T fluorometry % Inhibition: 0%
[1]; [7]
  Thioflavin T fluorometry % Inhibition: 6%
[1]; [8]
  Thioflavin T fluorometry % Inhibition: 17%
[1]; [9]
  Thioflavin T fluorometry % Inhibition: 63%
[2]; [6]
  Congo Red Binding % Inhibition: 7%
[2]; [7]
  Congo Red Binding % Inhibition: 20%
[2]; [8]
  Congo Red Binding % Inhibition: 19%
[2]; [9]
  Congo Red Binding % Inhibition: 20%
[3]; [10]
  ThioT Assay % Inhibition: 13%
[3]; [6]
  ThioT Assay % Inhibition: 23%
[3]; [7]
  ThioT Assay % Inhibition: 0%
[3]; [9]
  ThioT Assay % Inhibition: 80%
[4]; [10]
  Congo Red Binding- % Inhibition: 1%
[4]; [6]
  Congo Red Binding- % Inhibition: 2%
[4]; [7]
  Congo Red Binding- % Inhibition: 6%
[4]; [9]
  Congo Red Binding- % Inhibition: 18%
